Results: patent US20260256922A1, “PRODRUGS USEFUL FOR REDUCING ANTHRACYCLINE CARDIOTOXICITY” (WAKE FOREST UNIVERSITY HEALTH SCIENCES, priority 2022, published 2026)

How the values were obtained:
[1] = Time-dependent DOX release from prodrugs in presence of H2O2 (LCMS); type: physicochemical; settings: prodrug 10 μM, H2O2 10 μM, ammonium bicarbonate buffer 0.1 M pH 7.4, room temperature, over two hours
Experimental: FIG. 1. Time-course for DOX release from prodrugs (10 μM) in ammonium bicarbonate buffer (0.1 M, pH 7.4) at room temperature and in the presence of H2O2 (10 μM). A calibration curve was used to determine the concentration of free DOX at each time point by LCMS. Plotted as the mean±standard error of the mean (SEM) from three independent experiments.
To confirm this reactivity, we incubated c1 (10 μM) with H2O2 (10 μM) at room temperature in ammonium bicarbonate buffer (0.1 M, pH 7.4). At various time points, an aliquot was removed and analyzed by LCMS. Using a calibration curve, we determined the percentage of released DOX over the course of two hours. […] For comparison, we also assessed the reactivity of c2 towards the same concentration of peroxides. Like c1, c2 also functioned as an H2O2-activated DOX prodrug, but with faster kinetics, as quantitative release of free DOX was realized within 60 min.
A stock solution of c1 (or c2, 10 mM) in DMSO and H2O2 (10 mM) in ammonium bicarbonate buffer (0.1M, pH 7.4) were prepared immediately prior to use. […] At various time points (0 min, 10 min, 35 min, 60 min, 80 min, 100 min, 120 min), a 1 mL (inject volume 60 μL) aliquot was removed and analyzed by LC-MS (using a C18 analytical column and eluting at 0.4 mL/min with a linear gradient (20-90% v/v) MeOH/H2O (0-2 min), followed by 90% v/v MeOH/H2O (2-19 min)). […]

[2] = Selectivity of DOX release from c1 towards biological analytes (LCMS); type: physicochemical; settings: 80 min
Experimental: FIG. 2. Percentage of released DOX from c1 in response to various biological analytes during an 80 min incubation period at room temperature: (1) ammonium bicarbonate buffer (0.1 M, pH 7.5), (2) 10 μM H2O2, (3) 100 μM cysteine, (4) 100 μM homocysteine, (5) 1 mM glutathione, (6) 10 μM glutathione disulfide, (7) 10 µM sodium nitrite, (8) 10 μM sodium hypochlorite, (9) 10 μM superoxide, (10) 10 μM peroxynitrite. A calibration curve was used to determine the concentration of free DOX in response to each analyte. Plotted as the mean±SEM from three independent experiments.
Selectivity of c1. […] After a reaction time of 80 min, an aliquot was removed and analyzed by LCMS. […]
Analyte stock solutions of glutathione (10 mM), oxidized glutathione (10 mM), homocysteine (10 mM), L-cysteine (10 mM), sodium nitrite (NaNO2 10 mM), superoxide (KO2, 10 mM), sodium peroxynitrite (NaOONO, 10 mM), and sodium hypochlorite (NaClO, 10 mM), were prepared in ammonium bicarbonate buffer (0.1 M pH 7.4). […] After reacting for 80 min, a 1 mL (inject volume 60 μL) aliquot was removed and analyzed by LC-MS (using a C18 analytical column and eluting at 0.4 mL/min with a linear gradient (20-90% v/v) MeOH/H2O (0-2 min), followed by 90% v/v MeOH/H2O (2-19 min)). The signals in the chromatogram were recorded at 500 nm and the peak corresponding to free DOX (7.0 min) was integrated.

COc1cccc2c1C(=O)c1c(O)c3c(c(O)c1C2=O)C[C@@](O)(C(=O)CO)C[C@@H]3O[C@H]1C[C@H](NC(=S)OCc2ccc(B3OC(C)(C)C(C)(C)O3)cc2)[C@H](O)[C@H](C)O1 [c1]
percentage of released DOX [1]: greater than 70% | free DOX observed by LCMS ([2]; in the presence of H2O2 (10 μM)): significant levels of free DOX | stability (DOX release) ([2]; buffer alone, reductants (cysteine, homocysteine, glutathione), other oxidants (glutathione disulfide, sodium nitrite, sodium hypochlorite, superoxide, peroxynitrite)): relatively stable
